Data reported in patent EP1021178B1, “SELENOPHENE ANTI-TUMOR AGENTS” (Purdue Research Foundation, priority 1996, dated 1997).

Key:
Test in all cases: NCI human tumor cell panel
HOP-92 = assay type: cell-based; settings: HOP-92, read-out: Log10 LC50 (converted)
Description: (§1) Considering the diversity of tumors in terms of cell type, morphology, growth rate and other cellular characteristics, the U.S. National Cancer Institute (NCI) has developed a "disease-oriented" approach to antitumor activity screening (M.R. Boyd, in "Principle of Practice of Oncology" J.T. Devita, S. Hellman, S.A. Rosenberg (Eds.) Vol. 3, PPO Update, No. 10, 1989). This in vitro prescreening system is based on the measurement of antitumor cytotoxicity against human tumor cell line panels consisting of approximately 60 cell lines of major human tumors (including leukemia and slower growing tumor cells such as lung, colon, breast, skin, kidney, etc.). The most important advantage of the new in vitro screening panels is the opportunity to identify compounds that are selectively more cytotoxic to cells of slowly growing solid tumors than to rapidly growing leukemia cells.
(§2) The cytotoxic activity of the present selenophene compounds have been measured utilizing two different assays or screens. The first screen measures the cytotoxicity against a panel of sixty different human tumor cell lines. This assay provides data regarding the general cytotoxicity of an individual compound. In particular this type of assay is useful in identifying compounds which have enhanced cytotoxic activity against slow growing tumors as compared to faster growing tumor cells such as leukemia tumor cell lines. The identification of such compounds is critical since previously identified antitumor agents have low cytotoxic activity against slower growing tumors. […] The specificity of a cytotoxic compound for tumor cell lines relative to normal cells is an important characteristic of an effective antitumor agent.
(§3) Antitumor cytotoxicity data generated from the National Cancer Institute human tumor cell panels can also be expressed in a graphic pattern (mean graph) to display differential cell growth inhibition (K.D. Paull, R.H. Shoemaker, L. Hodes, A. Monks, D.A. Scudiero, L. Rubinstein, J. Plowman and M.R. Boyd, J. Nail. Cancer Inst., 81, 1088, 1989.) In the mean graph, the arithmetic mean of the logarithm of the GI50 (50% growth inhibition), TGI (total growth inhibition) or LC50 (50% lethal concentration) values is used as an anchor point. […] The length of a bar is indicative of differential cytotoxicity against a specific type of tumor cells or tumor panels.
(§4) The antitumor cytotoxicity of the selenophene compounds tested in those in vitro assays was measured by a microculture assay using either a 3-(4,5-dimethylthiazol-2-yl)-2,5-diphenyltetrazolium bromide (MTT) or sulforhodamine B (SRB) based assay. [M.R. Boyd in "Principles and Practices of Oncology," V.T. DeVita, Jr.]. The experiments were conducted at Purdue University in 96-well microtiter plates and the cytotoxic effects of the selenophene compounds on those cells were measured by cell count using a Coulter Z.F. counter (Hialeah, FL). The results are expressed as GI50, the concentration of drug at which cell numbers are reduced to 50% of control cell culture [T.C.K. Chan, C.J. Chang, N.M. Koonchanok and R.L. Geahlen, Biochem. Biophys. Res. Commun., 193, 1152, (1993); S. Hellman and S.A. Rosenberg (Eds.), Vol. 3, PPO Updates, Number 10, (1989).]
(§5) This in vitro microculture assay has an advantage over in vivo assays in that results are obtained within a week as opposed to several months. The MTT assay is based on the production of a dark blue formazan product by dehydrogenase in the mitochondria of live tumor cells after exposure to drug for 6 days [M.C. Alley, D.A. Scudiero, A. Monks, M.L. Hursey, M.J. Czerwinski, D.L. Fine, B.J. Abbott, J.G. Mayo, R.H. Shoemaker and M.R. Boyd, Cancer Res., 48, 589, 1988]. Thus, only live cells are stained and can be measured at 570 nm. […]

MCF7 = assay type: cell-based; settings: MCF7, read-out: Log10 LC50 (converted)
Description: as §1, §2, §3, §4, §5

KM12 = assay type: cell-based; settings: KM12, read-out: Log10 LC50 (converted)
Description: as §1, §2, §3, §4, §5

U251 = assay type: cell-based; settings: U-251, read-out: Log10 LC50 (converted)
Description: as §1, §2, §3, §4, §5

MDA-N = assay type: cell-based; settings: read-out: Log10 LC50 (converted)
Description: as §1, §2, §3, §4, §5

ACHN = assay type: cell-based; settings: read-out: Log10 LC50 (converted)
Description: as §1, §2, §3, §4, §5

NCI-H460 = assay type: cell-based; settings: NCI-H460, read-out: Log10 LC50 (converted)
Description: as §1, §2, §3, §4, §5

BT-549 = assay type: cell-based; settings: BT-549, read-out: Log10 LC50 (converted)
Description: as §1, §2, §3, §4, §5

MCF7/ADR-RES = assay type: cell-based; settings: MCF7, read-out: Log10 LC50 (converted)
Description: as §1, §2, §3, §4, §5

CCRF-CEM = assay type: cell-based; settings: read-out: Log10 LC50 (converted)
Description: as §1, §2, §3, §4, §5

UACC-62 = assay type: cell-based; settings: UACC-62, read-out: Log10 LC50 (converted)
Description: as §1, §2, §3, §4, §5

NCI-H522 = assay type: cell-based; settings: NCI-H522, read-out: Log10 LC50 (converted)
Description: as §1, §2, §3, §4, §5

SK-MEL-28 = assay type: cell-based; settings: SK-MEL-28, read-out: Log10 LC50 (converted)
Description: as §1, §2, §3, §4, §5

HOP-62 = assay type: cell-based; settings: HOP-62, read-out: Log10 LC50 (converted)
Description: as §1, §2, §3, §4, §5

LOX IMVI = assay type: cell-based; settings: read-out: Log10 LC50 (converted)
Description: as §1, §2, §3, §4, §5

K-562 = assay type: cell-based; settings: K562, read-out: Log10 LC50 (converted)
Description: as §1, §2, §3, §4, §5

M14 = assay type: cell-based; settings: M14, read-out: Log10 LC50 (converted)
Description: as §1, §2, §3, §4, §5

SF-295 = settings: SF-295, read-out: Log10 LC50 (converted)
OVCAR-3 = settings: OVCAR-3, read-out: Log10 LC50 (converted)
SK-MEL-5 = settings: SK-MEL-5, read-out: Log10 LC50 (converted)
EKVX = settings: for CC50: read-out: Log10 LC50 (converted)
HT29 = settings: HT-29, read-out: Log10 LC50 (converted)

**Q.** Which CC50 (HOP-92) does the source give for `O=Cc1ccc(-c2ccc(-c3ccc(C=O)[se]3)s2)[se]1` here?
**A.** > 100 µM

**Q.** And the CC50 (MCF7)?
**A.** > 100 µM

**Q.** And the CC50 (KM12)?
**A.** > 100 µM

**Q.** What about the CC50 (U251) of the same compound?
**A.** > 100 µM

**Q.** And the LC50 (50% lethal concentration) (MDA-N)?
**A.** > 100 µM

**Q.** And the CC50 (ACHN)?
**A.** > 100 µM

**Q.** What about the LC50 (concentration killing 50% of cells) (NCI-H460) of the same compound?
**A.** > 100 µM

**Q.** And the CC50 (BT-549)?
**A.** > 100 µM

**Q.** What about the CC50 (MCF7/ADR-RES) of the same compound?
**A.** > 100 µM

**Q.** What about the CC50 (CCRF-CEM) of the same compound?
**A.** > 100 µM

**Q.** And the CC50 (UACC-62)?
**A.** > 100 µM

**Q.** What about the CC50 (NCI-H522) of the same compound?
**A.** > 100 µM

**Q.** And the CC50 (SK-MEL-28)?
**A.** > 100 µM

**Q.** What about the CC50 (HOP-62) of the same compound?
**A.** > 100 µM

**Q.** What about the CC50 (LOX IMVI) of the same compound?
**A.** > 100 µM

**Q.** What about the LC50 (K-562) of the same compound?
**A.** > 100 µM

**Q.** And the CC50 (M14)?
**A.** > 100 µM

**Q.** And the CC50 (SF-295)?
**A.** > 100 µM

**Q.** What about the CC50 (OVCAR-3) of the same compound?
**A.** > 100 µM

**Q.** And the CC50 (SK-MEL-5)?
**A.** > 100 µM

**Q.** And the CC50 (EKVX)?
**A.** > 100 µM

**Q.** What about the IC (TGI) (EKVX; read-out: Log10 TGI) of the same compound?
**A.** > 100 µM

**Q.** And the CC50 (HT29)?
**A.** > 100 µM

**Q.** Which results are given for `O=Cc1ccc(-c2ccc(-c3ccc(C=O)[se]3)[se]2)[se]1`?
**A.** CC50 (HOP-92): > 100 µM; CC50 (MCF7): > 100 µM; CC50 (KM12): > 100 µM; CC50 (U251): > 100 µM; LC50 (50% lethal concentration) (MDA-N): > 100 µM; CC50 (ACHN): > 100 µM; LC50 (concentration killing 50% of cells) (NCI-H460): > 100 µM; CC50 (BT-549): > 100 µM; CC50 (MCF7/ADR-RES): > 100 µM; CC50 (CCRF-CEM): > 100 µM; CC50 (UACC-62): > 100 µM; CC50 (NCI-H522): 95.5 µM; CC50 (SK-MEL-28): > 100 µM; CC50 (HOP-62): > 100 µM; CC50 (LOX IMVI): > 100 µM; LC50 (K-562): > 100 µM; CC50 (M14): > 100 µM; CC50 (SF-295): > 100 µM; CC50 (OVCAR-3): > 100 µM; CC50 (SK-MEL-5): > 100 µM; CC50 (EKVX): > 100 µM; CC50 (HT29): > 100 µM

**Q.** How did the CC50 (HOP-92) turn out when `O=Cc1ccc(-c2ccc(-c3cccs3)[se]2)s1` was run?
**A.** > 100 µM

**Q.** What about the CC50 (MCF7) of the same compound?
**A.** > 100 µM

**Q.** What about the CC50 (KM12) of the same compound?
**A.** > 100 µM

**Q.** What about the CC50 (U251) of the same compound?
**A.** > 100 µM

**Q.** And the LC50 (50% lethal concentration) (MDA-N)?
**A.** > 100 µM

**Q.** And the CC50 (ACHN)?
**A.** > 100 µM

**Q.** And the LC50 (concentration killing 50% of cells) (NCI-H460)?
**A.** > 100 µM

**Q.** What about the CC50 (BT-549) of the same compound?
**A.** > 100 µM

**Q.** And the CC50 (MCF7/ADR-RES)?
**A.** > 100 µM

**Q.** And the CC50 (CCRF-CEM)?
**A.** > 100 µM

**Q.** What about the CC50 (UACC-62) of the same compound?
**A.** 85.1 µM

**Q.** And the CC50 (NCI-H522)?
**A.** > 100 µM

**Q.** And the CC50 (SK-MEL-28)?
**A.** > 100 µM

**Q.** What about the CC50 (HOP-62) of the same compound?
**A.** > 100 µM

**Q.** And the CC50 (LOX IMVI)?
**A.** > 100 µM

**Q.** What about the LC50 (K-562) of the same compound?
**A.** > 100 µM

**Q.** What about the CC50 (M14) of the same compound?
**A.** > 100 µM

**Q.** And the CC50 (SF-295)?
**A.** > 100 µM

**Q.** And the CC50 (OVCAR-3)?
**A.** > 100 µM

**Q.** And the CC50 (SK-MEL-5)?
**A.** > 100 µM

**Q.** What about the CC50 (EKVX) of the same compound?
**A.** > 100 µM

**Q.** What about the CC50 (HT29) of the same compound?
**A.** > 100 µM

**Q.** What does the source list for `O=Cc1ccc(-c2ccc(-c3ccc(C=O)s3)[se]2)s1`?
**A.** CC50 (HOP-92): > 100 µM; CC50 (MCF7): > 100 µM; CC50 (KM12): > 100 µM; CC50 (U251): 89.1 µM; LC50 (50% lethal concentration) (MDA-N): > 100 µM; CC50 (ACHN): > 100 µM; LC50 (concentration killing 50% of cells) (NCI-H460): > 100 µM; CC50 (BT-549): > 100 µM; CC50 (MCF7/ADR-RES): > 100 µM; CC50 (CCRF-CEM): > 100 µM; CC50 (UACC-62): > 100 µM; CC50 (NCI-H522): > 100 µM; CC50 (SK-MEL-28): > 100 µM; CC50 (HOP-62): > 100 µM; CC50 (LOX IMVI): > 100 µM; LC50 (K-562): > 100 µM; CC50 (M14): > 100 µM; CC50 (SF-295): > 100 µM; CC50 (OVCAR-3): 4.07 µM; CC50 (SK-MEL-5): > 100 µM; CC50 (EKVX): > 100 µM; CC50 (HT29): > 100 µM
